Reference: US11453669B2, “Polycyclic pyridone derivative” (Shionogi & Co., Ltd., priority 2018, dated 2022)
Like-named read-outs stand apart in the source and are kept apart here.

Key:
HIV [1] = assay: Anti-HIV activity (MT-4 cells, MTT); format: cell-based; conditions: read-out: EC50_nM (50% HIV inhibitory concentration)
Description: Serial dilutions of a test sample were prepared in a 96-well microplate (50 μL/well). 2.5×10^5 cells/mL of an MT-4 cell suspension was dispensed at 100 μL/well to the plate containing the test sample. Then, an HIV virus solution was dispensed at 50 μL/well. The plate was mixed with a plate mixer and cultured for 4 days in a CO2 incubator. An MTT (3-(4,5-dimethylthiazol-2-yl)-2,5-diphenyltetrazolium bromide) solution was dispensed at 30 μL/well. The plate was reacted for 1 hour in a CO2 incubator. 150 μL of the supernatant was removed from each well so as not to take up the cells. 150 μL of a cell lysis solution was added to each well and well mixed with a plate mixer until the cells were completely lysed. The absorbance of the mixed plate was measured at two wavelengths of 560 nm and 690 nm using a microplate reader.

[2] = system: HIV mutant strain 1 (E138K/G140S/Q148H/N155H); format: cell-based; conditions: FC=EC50 of the mutant strain/EC50 of the wild strain, HeLa-CD4 cells
Description: (§1) Serial dilutions of a test sample were prepared in a 96-well microplate (50 μL/well). 2.5×10^5 cells/mL of a HeLa-CD4 cell suspension was dispensed at 100 μL/well to the plate containing the test sample. Then, an HIV virus solution (wild strain and mutant strain) was dispensed at 50 μL/well. The plate was mixed with a plate mixer and cultured for 3 days in a CO2 incubator. The culture supernatant in each well was removed by suction. A cell lysis buffer in a reporter assay kit was dispensed at 100 μL/well, and the plate was frozen in a freezer (−80° C.). The plate frozen in a freezer was thawed at room temperature, then mixed with a plate mixer, and centrifuged at 1,200 rpm for 5 minutes. The supernatant of each well was dispensed at 20 μL/well to a 96-well microplate (BLACK). A chemiluminescent in the reporter assay kit reagent was dispensed at 100 μL/well and reacted at room temperature for approximately 1 hour. Then, luminescence intensity was measured using MicroBeta TRILUX.

[3] = system: HIV mutant strain 2 (E92Q/E138T/G140S/Q148H); format: cell-based; conditions: FC=EC50 of the mutant strain/EC50 of the wild strain, HeLa-CD4 cells
Description: as §1

CYP3A4 = molecular target: T1, CYP3A4 (Homo sapiens, UniProt P08684); assay: CYP3A4 (MDZ) MBI test; format: in vitro ADME; conditions: pooled human liver microsomes, midazolam 1-hydroxylation, IC 0 min preincubation/IC 30-min preincubation
T1 construct: from tissue; host or cells: pooled human liver microsomes
T1 sequence (P08684 whole entry): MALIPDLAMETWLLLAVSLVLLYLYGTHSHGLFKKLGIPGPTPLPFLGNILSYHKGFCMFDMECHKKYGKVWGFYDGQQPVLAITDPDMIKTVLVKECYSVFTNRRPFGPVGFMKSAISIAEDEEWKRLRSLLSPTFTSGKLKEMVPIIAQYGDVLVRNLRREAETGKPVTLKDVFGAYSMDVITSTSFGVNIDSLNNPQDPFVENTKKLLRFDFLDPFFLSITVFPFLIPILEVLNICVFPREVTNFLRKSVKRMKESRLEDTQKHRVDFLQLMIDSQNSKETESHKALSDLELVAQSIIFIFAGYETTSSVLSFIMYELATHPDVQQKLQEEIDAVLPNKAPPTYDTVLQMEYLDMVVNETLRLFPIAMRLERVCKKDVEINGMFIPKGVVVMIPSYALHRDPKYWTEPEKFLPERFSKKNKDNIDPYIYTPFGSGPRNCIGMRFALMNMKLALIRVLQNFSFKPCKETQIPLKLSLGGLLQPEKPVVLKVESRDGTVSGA
Description: This test as to the inhibition of CYP3A4 by the compound of the present invention is to evaluate mechanism based inhibition (MBI) ability from enhancement in inhibitory effect, caused by a metabolism reaction, of the compound of the present invention. CYP3A4 inhibition was evaluated using pooled human liver microsomes by 1-hydroxylation reaction of midazolam (MDZ) as a marker reaction. […]
A part of pre-reaction solution was transferred to another 96-well plate, and 1/10 diluted by K-Pi buffer solution containing a substrate. […] After each plate where the marker reaction has been performed was centrifuged at 3000 rpm for 15 minutes, 1-hydroxymidazolam in the centrifugation supernatant was quantified by LC/MS/MS.
Only a solvent DMSO used for dissolving the compound was added to the reaction solution instead of the compound of the present invention, and the mixture was used as a control (100%). Remaining activity (%) was calculated at the time of the addition of the compound of the present invention at each concentration, and IC value was calculated by inverse estimation based on a logistic model using the concentrations and the rates of inhibition. A shifted IC value is calculated from IC from the 0 min preincubation/IC from the 30-min preincubation. […]

[4] = format: in vitro ADME; conditions: human, 30 min, 0.5 μmol/L, pH 7.4
Description: Using commercially available pooled human liver microsomes, a compound of the present invention was reacted for a constant time, and a remaining rate was calculated by comparing a reacted sample and an unreacted sample, thereby, a degree at which the compound of the present invention was metabolized in liver was assessed.
A reaction was performed (oxidative reaction) at 37° C. for 0 minute or 30 minutes in the presence of 1 mmol/L NADPH in 0.2 mL of a buffer solution (50 mmol/L Tris-HCl pH 7.4, 150 mmol/L potassium chloride, 10 mmol/L magnesium chloride) containing 0.5 mg protein/mL of human liver microsomes. After the reaction, 50 μL of the reaction solution was added to 100 μL of a solution of methanol/acetonitrile=1/1 (v/v), and the mixture was mixed and centrifuged at 3000 rpm for 15 minutes. The compound of the present invention in the centrifugation supernatant was quantified by LC/MS/MS or solid-phase extraction (SPE)/MS. The amount of the compound of the present invention remaining after the reaction was calculated with the amount of the compound at 0 minutes of the reaction defined as 100%.

[5] = molecular target: T2, Voltage gated sodium channel (Nav1.5 channel) encoded by SCN5A gene (Homo sapiens, UniProt Q14524); assay: Nav test (QPatch whole cell patch clamp); format: cell-based; conditions: HEK cells expressing Nav1.5, applied 5 minutes or more, room temperature
T2 construct: expressed in transfected cells; host or cells: HEK cells
T2 sequence (Q14524 whole entry): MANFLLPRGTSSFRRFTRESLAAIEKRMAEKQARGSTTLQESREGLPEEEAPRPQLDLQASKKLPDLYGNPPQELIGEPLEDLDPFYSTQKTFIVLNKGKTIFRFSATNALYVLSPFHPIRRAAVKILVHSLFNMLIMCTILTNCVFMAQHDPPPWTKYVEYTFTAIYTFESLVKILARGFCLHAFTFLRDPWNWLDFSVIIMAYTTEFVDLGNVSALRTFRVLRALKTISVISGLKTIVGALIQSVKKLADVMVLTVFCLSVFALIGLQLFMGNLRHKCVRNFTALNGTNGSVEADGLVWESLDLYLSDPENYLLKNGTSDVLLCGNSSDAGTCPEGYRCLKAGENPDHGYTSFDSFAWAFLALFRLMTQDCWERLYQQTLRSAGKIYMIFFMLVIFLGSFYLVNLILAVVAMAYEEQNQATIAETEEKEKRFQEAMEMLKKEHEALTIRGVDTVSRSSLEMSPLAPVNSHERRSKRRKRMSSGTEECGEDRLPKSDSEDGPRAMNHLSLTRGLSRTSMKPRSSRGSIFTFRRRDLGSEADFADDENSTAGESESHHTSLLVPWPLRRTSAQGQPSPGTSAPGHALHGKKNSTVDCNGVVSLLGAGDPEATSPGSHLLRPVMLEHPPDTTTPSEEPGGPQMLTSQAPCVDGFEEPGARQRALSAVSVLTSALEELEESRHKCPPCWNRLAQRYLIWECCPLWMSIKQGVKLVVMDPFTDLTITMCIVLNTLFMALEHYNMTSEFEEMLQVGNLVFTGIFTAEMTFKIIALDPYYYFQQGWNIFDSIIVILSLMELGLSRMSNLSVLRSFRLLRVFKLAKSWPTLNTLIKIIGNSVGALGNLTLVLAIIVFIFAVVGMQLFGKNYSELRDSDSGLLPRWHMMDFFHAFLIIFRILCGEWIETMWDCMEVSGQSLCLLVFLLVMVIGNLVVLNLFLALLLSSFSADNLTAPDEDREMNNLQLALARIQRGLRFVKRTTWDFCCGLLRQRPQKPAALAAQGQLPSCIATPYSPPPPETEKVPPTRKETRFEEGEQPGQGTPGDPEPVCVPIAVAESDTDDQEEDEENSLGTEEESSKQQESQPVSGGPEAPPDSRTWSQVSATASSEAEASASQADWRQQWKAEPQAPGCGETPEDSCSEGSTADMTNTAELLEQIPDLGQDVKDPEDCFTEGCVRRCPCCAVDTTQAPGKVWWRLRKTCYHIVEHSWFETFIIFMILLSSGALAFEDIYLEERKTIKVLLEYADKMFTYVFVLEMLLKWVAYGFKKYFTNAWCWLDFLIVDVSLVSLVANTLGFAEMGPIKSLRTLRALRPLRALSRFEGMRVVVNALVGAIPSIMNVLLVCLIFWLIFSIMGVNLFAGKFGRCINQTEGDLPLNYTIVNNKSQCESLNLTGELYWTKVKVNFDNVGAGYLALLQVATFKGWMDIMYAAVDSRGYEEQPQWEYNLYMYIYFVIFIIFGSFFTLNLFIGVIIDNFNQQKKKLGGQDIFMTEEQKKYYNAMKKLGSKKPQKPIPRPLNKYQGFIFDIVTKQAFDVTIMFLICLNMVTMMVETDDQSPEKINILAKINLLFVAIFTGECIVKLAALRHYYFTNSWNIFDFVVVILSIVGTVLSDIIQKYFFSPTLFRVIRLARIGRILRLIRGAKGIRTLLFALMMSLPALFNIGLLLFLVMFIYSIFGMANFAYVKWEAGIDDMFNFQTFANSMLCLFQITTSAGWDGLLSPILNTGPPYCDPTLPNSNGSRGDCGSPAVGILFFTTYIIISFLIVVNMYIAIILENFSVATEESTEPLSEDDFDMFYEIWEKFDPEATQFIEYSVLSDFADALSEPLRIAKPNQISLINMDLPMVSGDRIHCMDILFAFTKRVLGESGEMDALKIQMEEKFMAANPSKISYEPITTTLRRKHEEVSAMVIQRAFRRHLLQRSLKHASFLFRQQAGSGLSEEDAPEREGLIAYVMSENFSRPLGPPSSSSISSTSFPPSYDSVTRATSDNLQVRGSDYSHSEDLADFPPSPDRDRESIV
Description: A cell was retained at a membrane potential of −100 mV by whole cell patch clamp method using a fully automated patch clamp system (QPatch; Sophion Bioscience A/S), and INa induced by depolarization pulse stimulation at −10 mV for 20 ms was recorded. […] The extracellular solution in which the medium and the compound of the present invention had been dissolved at each objective concentration was applied to the cell for 5 minutes or more under conditions of room temperature.

HIV [6] = assay: Anti-HIV activity evaluation test using PBMC of a healthy subject; format: cell-based; conditions: Human immunodeficiency virus 1, 96 h, read-out: 90% HIV inhibitory concentration (EC90); PHA-stimulated PBMC, cultured 4 days, reverse transcriptase activity
Description: Serial dilutions of a test sample were prepared in a 96-well microplate (50 μL/well). PBMC stimulated with 1.0×10^5 cells/well of Phytohemagglutinin (PHA) and an HIV virus solution were mixed for the required number of wells, and the mixture was reacted at 37° C. for 1 hour. After the reaction, the cell suspension was centrifuged and the supernatant discarded. The infected cells were dispersed in a culture solution for the required number of wells at 150 μL/well, and 150 μL/well was dispensed to a 96-well microplate containing a test sample. The plate was mixed with a plate mixer and cultured for 4 days in a C02 incubator. The reverse transcriptase activity in the culture solution was measured.

HIV [7] = assay: Anti-HIV activity evaluation test in the presence of human serum protein (MT-4 cells); format: cell-based; conditions: PS=4×(EC50 with 25% human serum protein/EC50 without), 100% extrapolated value
Description: Serial dilutions of a test sample were prepared in a 96-well microplate (50 μL/well). A human serum protein solution (human serum protein concentration: 50%) was dispensed into a 96-well microplate containing a test sample in an amount of 100 μL/well, and left standing at room temperature for 1 hour. 100 μL/well of the culture solution was dispensed to a plate without serum. 3.0×10^5 cells/well of MT-4 cells and 3 μL/well of HIV virus solution were mixed for the required number of wells and the mixture was reacted at 37° C. for 1 hour. After the reaction, the cell suspension was centrifuged and the supernatant discarded. The infected cells were dispersed in a culture solution for the required number of wells at 50 μL/well, and 50 μL/well was dispensed to a 96-well microplate containing the test sample and human serum protein (human serum protein final concentration: 25%). The plate was mixed with a plate mixer and cultured for 4 days in a CO2 incubator. An MTT (3-(4,5-dimethylthiazol-2-yl)-2,5-diphenyltetrazolium bromide) solution was dispensed at 30 μL/well. The plate was reacted for 1 hour in a CO2 incubator. 150 μL of the supernatant was removed from each well so as not to take up the cells. […] The absorbance of the mixed plate was measured at two wavelengths of 560 nm and 690 nm using a microplate reader. […]

[8] = system: HIV mutant strain 3 (E92Q/E138K/G140S/Q148H); assay: Resistance evaluation test, HeLa-CD4 reporter assay, mutant strain 3; format: cell-based; conditions: FC=EC50 of the mutant strain/EC50 of the wild strain, HeLa-CD4 cells
Description: as §1, with “TRILUX. […] FC=EC50 of the mutant strain/EC50 of the wild strain (Results) The FC for mutant strain 1 (E138K/G140S/Q148H/N155H) and the FC for mutant strain 2 (E92Q/E138T/G140S/Q148H) are shown in the table.” for “TRILUX.”

[9] = system: HIV mutant strain 4 (T97A/E138T/G140S/Q148H); assay: Resistance evaluation test, HeLa-CD4 reporter assay, mutant strain 4; format: cell-based; conditions: FC=EC50 of the mutant strain/EC50 of the wild strain, HeLa-CD4 cells
Description: as §1, with “TRILUX. […] FC=EC50 of the mutant strain/EC50 of the wild strain (Results) The FC for mutant strain 1 (E138K/G140S/Q148H/N155H) and the FC for mutant strain 2 (E92Q/E138T/G140S/Q148H) are shown in the table.” for “TRILUX.”

[10] = Human immunodeficiency virus 1, MT4, 96 h

SMILES	EC50 (HIV [1]; [10])	FC (fold change) for mutant strain 1 [2]	FC (fold change) for mutant strain 2 [3]	CYP3A4 MBI grade (shifted IC) (CYP3A4)	residual rate [4]	ratio of maximum peak current (INa) with compound relative to medium [5]	EC90 (HIV [6])	potency shift (PS) in the presence of human serum protein (HIV [7])	EC50 (HIV [1]; MT-4 cells, cultured 4 days, MTT)	FC for mutant strain 3 [8]	FC for mutant strain 4 [9]
CCN1C(=O)c2c(O)c(=O)c(-c3nnc(Cc4c(F)cc(F)cc4F)s3)cn2N2[C@H](COC)CC[C@@H]12 [II-037]	0.62 nM	10	11	(−) (shifted IC of 1.0 or less is graded as negative (−))	93.4	88.8%					
CCN1C(=O)c2c(O)c(=O)c(-c3nnc(Cc4ccc(F)cc4F)s3)cn2N2C[C@@H](C)C[C@@H]12 [II-023]	1.2 nM	4.1	2.5		98.3	93.3%	1.7 nM	56			
CCN1C(=O)c2c(O)c(=O)c(-c3nnc(Cc4ccc(F)cc4F)s3)cn2N2C[C@@H]3CC[C@@H](C3)[C@@H]12 [II-051]	0.66 nM	2.5	3.9	(−) (shifted IC of 1.0 or less is graded as negative (−))	92.9						
CCN1C(=O)c2c(O)c(=O)c(-c3nnc(Cc4c(F)cc(F)cc4F)s3)cn2N2CCCC[C@@H]12 [Compound I-008]	1.6 nM	3.8	6.9		97.7	103%	1 nM	116			
CCN1C(=O)c2c(O)c(=O)c(-c3nnc(Cc4ccc(F)cc4F)s3)cn2N2CCCC[C@@H]12 [Compound I-002]		5.6	7.5			102%			3.2 nM	7.7	3.2
